Assay results from patent US10370381B2, “Inhibitors of bruton'S tyrosine kinase” (GILEAD SCIENCES, INC., priority 2017, dated 2019).
Where a name gives a salt, the structure may show the parent alone.

Assay: Dynamic Vapor Sorption (DVS), hygroscopicity of solids
Assay type: physicochemical
Conditions: from about 10% to about 90% RH at about 25° C.
Protocol: Dynamic Vapor Sorption (DVS):
DVS data, which was used to determine the hygroscopicity of solids, were collected on a TA Instruments Q5000SA system. The temperature-controlled chamber was set at 25° C. and dry nitrogen was introduced at a flow rate of 10 mL/min. Approximately 1 to 5 mg sample was placed in a semispherical metal-coated quartz crucible or a disposable aluminum pan. A stepwise isotherm experiment at 25° C. was conducted by controlling the relative humidity (RH) in the chamber from 10% to 90%, then down to 10%, at 10% increments to accomplish a full sorption/desorption cycle.

SMILES | dynamic vapor sorption isotherm water uptake
CC#CC(=O)N1CC[C@@H](n2c(=O)n(-c3ccc(Oc4ccccc4)cc3)c3c(N)ncnc32)C1 [Compound (I) edisylate, 6-amino-9-[(3R)-1-(2-butynoyl)-3-pyrrolidinyl]-7-(4-phenoxyphenyl)-7,9-dihydro-8H-purin-8-one] | about 22%
CC#CC(=O)N1CC[C@@H](n2c(=O)n(-c3ccc(Oc4ccccc4)cc3)c3c(N)ncnc32)C1 [Compound (I) fumarate, 6-amino-9-[(3R)-1-(2-butynoyl)-3-pyrrolidinyl]-7-(4-phenoxyphenyl)-7,9-dihydro-8H-purin-8-one] | about 0.1%
CC#CC(=O)N1CC[C@@H](n2c(=O)n(-c3ccc(Oc4ccccc4)cc3)c3c(N)ncnc32)C1 [Compound (I) hemiedisylate, 6-amino-9-[(3R)-1-(2-butynoyl)-3-pyrrolidinyl]-7-(4-phenoxyphenyl)-7,9-dihydro-8H-purin-8-one] | about 3%
CC#CC(=O)N1CC[C@@H](n2c(=O)n(-c3ccc(Oc4ccccc4)cc3)c3c(N)ncnc32)C1 [Compound (I) heminapadisylate, 6-amino-9-[(3R)-1-(2-butynoyl)-3-pyrrolidinyl]-7-(4-phenoxyphenyl)-7,9-dihydro-8H-purin-8-one] | about 6.5%
CC#CC(=O)N1CC[C@@H](n2c(=O)n(-c3ccc(Oc4ccccc4)cc3)c3c(N)ncnc32)C1 [Compound (I) hemisulfate, 6-amino-9-[(3R)-1-(2-butynoyl)-3-pyrrolidinyl]-7-(4-phenoxyphenyl)-7,9-dihydro-8H-purin-8-one] | about 1.2%
CC#CC(=O)N1CC[C@@H](n2c(=O)n(-c3ccc(Oc4ccccc4)cc3)c3c(N)ncnc32)C1 [Compound (I) oxalate, 6-amino-9-[(3R)-1-(2-butynoyl)-3-pyrrolidinyl]-7-(4-phenoxyphenyl)-7,9-dihydro-8H-purin-8-one] | about 0.5%
CC#CC(=O)N1CC[C@@H](n2c(=O)n(-c3ccc(Oc4ccccc4)cc3)c3c(N)ncnc32)C1 [Compound (I) succinate, 6-amino-9-[(3R)-1-(2-butynoyl)-3-pyrrolidinyl]-7-(4-phenoxyphenyl)-7,9-dihydro-8H-purin-8-one] | about 0.2%
